The term Ki denotes a measure of affinity in units of concentration, obtained from inhibition or displacement. A lower Ki goes with higher affinity.

This assay in a line: Binding affinity towards NMDA receptor ion channel (PCP site) was determined.
Turning to `Brc1cccc(CNC2C3C4CC5C6C4C2C6C2(OCCO2)C53)c1` (stereo unspecified), the Ki was > 10 µM.
For `OC12C3C4CC5C6C4C1C6C(C53)N2Cc1cccc(Br)c1` (stereo unspecified), the inhibitory constant (Ki) is > 10 µM.
To `Ic1ccc(CNC2C3C4CC5C6C4C2C6C2(OCCO2)C53)cc1` (stereo unspecified) belongs > 10 µM; to `Ic1cccc(CNC2C3C4CC5C6C4C2C6C2(OCCO2)C53)c1` (stereo unspecified), > 10 µM; to `c1ccc(CNC2C3C4CC5C6C4C2C6C2(OCCO2)C53)cc1` (stereo unspecified), > 10 µM.
To `OC12C3C4CC5C6C4C1C6C(C53)N2Cc1ccccc1` (stereo unspecified) belongs > 10 µM.
